Legend:
GPX3 CpG sites = assay: Bisulfite sequencing of CpG sites, cell lines treated vs. untreated; assay type: cell-based, human; set-up: unit not given here; conditions: cell line pool
Experimental: (§1) Samples: Paired tumor and adjacent normal tissues from twelve colorectal cancer patients were collected under institutional review board (IRB) approval with patient consent. Tissues were flash frozen in LN2 and stored at −80° C. prior to DNA extraction. All tissues were blinded. Cell lines: A panel of five colorectal cancer cell lines was used. Cells were grown to ˜50% confluence in the appropriate culture medium prior to treatment with 5-aza-2′-deoxycytidine. Optimal concentrations and incubation times (Table 4) were determined by assaying for reduction of p16 promoter methylation using MSP. Cells were harvested, pelleted by centrifugation, and washed twice in Hanks buffered saline solution. Cell pellets were stored at −80° C. Control cells were maintained simultaneously without 5-aza-2′-deoxycytidine treatment. DNA extraction: DNA was purified from tissues and cell lines using the QIAGEN DNeasy® Tissue Kit. Approximately 25-35 mg of each tissue was pulverized under liquid nitrogen before extraction. Elution volume for tissues was 2004. A final volume of […] of cell line DNA was extracted from 15 to 254 of each packed cell pellet (between 10^6-10^7 cells). Purified DNA was stored at −20° C. Bisulfite modification: Modification was performed according to the Frommer method (See Frommer M, et al., PNAS, 89: 1827-1831 (1992).) One μg genomic DNA was diluted into 50 μl with distilled H2O, 5.5 μl of 2M NaOH was added, and the mixture incubated at 37° C. for 10 minutes (to create single stranded DNA). Thirty μl of freshly prepared 10 mM hydroquinone (Sigma) was added to each tube. Five hundred twenty μl of freshly prepared 3M sodium bisulfite (Sigma S-8890), pH 5.0 was then added. Reagents were thoroughly mixed and then covered with mineral oil and incubated at 50° C. for 16 hours. After removing the oil, 1 ml of Wizard DNA Cleanup Resin (Promega A7280) was added to each tube prior to applying the mixture to miniprep column in the DNA Wizard Cleanup kit. The column was washed with 2 ml of 80% isopropanol, and eluted with 50 μl of heated water (60-70° C.). 5.5 μl of 3 M NaOH to was added to each tube, and incubated at room temperature for 5 minutes. Then 1 μl glycogen was added as carrier, 33 μl of 10 M NH4Ac, and 3 volumes of ethanol for DNA precipitation. The pellet was spun down and washed with 70% ethanol, dried and resuspended in 20 μl water. In some instances, the EZ DNA Methylation Kit (Zymo Research) which uses a simplified version of the Frommer method was used. In these cases, 1 μg of genomic DNA was denatured in 0.3M NaOH for 15 minutes at 37° C. followed by incubation at 50° C. for 16 hours in 0.5 mM hydroquinone and a saturated solution of sodium bisulfite at pH 5. Modified DNA was bound to the Zymo column membrane, then desulfonated with 0.3M NaOH for 15 minutes at room temperature. DNA was washed and resuspended with 50 μL 10 mM Tris-HCl-0.1 mM EDTA, pH 7.5 and stored at −20° C. The bisulfite reaction results in conversion of an unmethylated cytosine to uracil. Methylated cytosine remains unchanged after the bisulfite reaction. The resulting bisulfite modified DNA is single stranded. PCR amplification for sequencing: Primers were designed to amplify both methylated and unmethylated fragments of DNA (Table 5). Five μL of modified DNA ( 1/10 of modification reaction) was amplified first in a 254, reaction volume containing 10 mM Tris-HCl pH8.3, 50 mM KCl, 1.5 mM to 2 mM MgCl2, (Applied Biosystems), 0.25 mM each dNTP, 0.5 unit AmpliTaq (Applied Biosystems), and sequencing primers (each at 200 nM). Cycling conditions were 10 minutes at 95° C., 40 cycles of 30 seconds at 95° C., 30 seconds at 54-62° C., 30 seconds at 72° C., subsequently followed by extension for 5 minutes at 72° C.
(§2) Reaction products were purified either by the shrimp-alkaline phosphatase-Exol standard method or on the Qiagen Qiaquick PCR clean-up column and eluted in 30 μL 10 mM Tris-HCl, pH8.5. […]

SCNN1B CpG sites = assay: as above; assay type: cell-based, human; set-up: unit not given here
Experimental: as §1, §2

Nc1ncn([C@H]2C[C@H](O)[C@@H](CO)O2)c(=O)n1 [5-aza-2′-deoxycytidine]
Sequencing results for GPX3, CpG site #25 (GPX3 CpG sites): 70
Sequencing results for GPX3, CpG site #27 (GPX3 CpG sites): 100
Sequencing results for GPX3, CpG site #31 (GPX3 CpG sites): 67
Sequencing results for GPX3, CpG site #49 (GPX3 CpG sites): 70
Sequencing results for GPX3, CpG site #56 (GPX3 CpG sites): 98
Sequencing results for GPX3, CpG site #75 (GPX3 CpG sites): 72
Sequencing results for GPX3, CpG site #84 (GPX3 CpG sites): 77
Sequencing results for GPX3, CpG site #86 (GPX3 CpG sites): 74
Sequencing results for GPX3, CpG site #101 (GPX3 CpG sites): 84
Sequencing results for GPX3, CpG site #126 (GPX3 CpG sites): 75
Sequencing results for GPX3, CpG site #129 (GPX3 CpG sites): 80
Sequencing results for GPX3, CpG site #142 (GPX3 CpG sites): 97
Sequencing results for GPX3, CpG site #146 (GPX3 CpG sites): 80
Sequencing results for GPX3, CpG site #167 (GPX3 CpG sites): 89
SCNN1B sequencing result (methylation) at CpG site #179 (SCNN1B CpG sites; HT29 treated): 70
SCNN1B sequencing result (methylation) at CpG site #192 (SCNN1B CpG sites; HT29 treated): 90
SCNN1B sequencing result (methylation) at CpG site #203 (SCNN1B CpG sites; HT29 treated): 36
SCNN1B sequencing result (methylation) at CpG site #223 (SCNN1B CpG sites; HT29 treated): 79
SCNN1B sequencing result (methylation) at CpG site #228 (SCNN1B CpG sites; HT29 treated): 74
SCNN1B sequencing result (methylation) at CpG site #230 (SCNN1B CpG sites; HT29 treated): 67
SCNN1B sequencing result (methylation) at CpG site #234 (SCNN1B CpG sites; HT29 treated): 69
SCNN1B sequencing result (methylation) at CpG site #238 (SCNN1B CpG sites; HT29 treated): 75
SCNN1B sequencing result (methylation) at CpG site #245 (SCNN1B CpG sites; HT29 treated): 65
SCNN1B sequencing result (methylation) at CpG site #267 (SCNN1B CpG sites; HT29 treated): 55
SCNN1B sequencing result (methylation) at CpG site #295 (SCNN1B CpG sites; HT29 treated): 26
SCNN1B sequencing result (methylation) at CpG site #179 (SCNN1B CpG sites; LS123 treated): 56
SCNN1B sequencing result (methylation) at CpG site #192 (SCNN1B CpG sites; LS123 treated): 63
SCNN1B sequencing result (methylation) at CpG site #203 (SCNN1B CpG sites; LS123 treated): 42
SCNN1B sequencing result (methylation) at CpG site #223 (SCNN1B CpG sites; LS123 treated): 90
SCNN1B sequencing result (methylation) at CpG site #228 (SCNN1B CpG sites; LS123 treated): 87
SCNN1B sequencing result (methylation) at CpG site #230 (SCNN1B CpG sites; LS123 treated): 82
SCNN1B sequencing result (methylation) at CpG site #234 (SCNN1B CpG sites; LS123 treated): 80
SCNN1B sequencing result (methylation) at CpG site #238 (SCNN1B CpG sites; LS123 treated): 77
SCNN1B sequencing result (methylation) at CpG site #245 (SCNN1B CpG sites; LS123 treated): 81
SCNN1B sequencing result (methylation) at CpG site #267 (SCNN1B CpG sites; LS123 treated): 59
SCNN1B sequencing result (methylation) at CpG site #295 (SCNN1B CpG sites; LS123 treated): 23
SCNN1B sequencing result (methylation) at CpG site #179 (SCNN1B CpG sites; LS174T treated): 7
SCNN1B sequencing result (methylation) at CpG site #192 (SCNN1B CpG sites; LS174T treated): 56
SCNN1B sequencing result (methylation) at CpG site #203 (SCNN1B CpG sites; LS174T treated): 40
SCNN1B sequencing result (methylation) at CpG site #223 (SCNN1B CpG sites; LS174T treated): 75
SCNN1B sequencing result (methylation) at CpG site #228 (SCNN1B CpG sites; LS174T treated): 81
SCNN1B sequencing result (methylation) at CpG site #230 (SCNN1B CpG sites; LS174T treated): 72
SCNN1B sequencing result (methylation) at CpG site #234 (SCNN1B CpG sites; LS174T treated): 70
SCNN1B sequencing result (methylation) at CpG site #238 (SCNN1B CpG sites; LS174T treated): 55
SCNN1B sequencing result (methylation) at CpG site #245 (SCNN1B CpG sites; LS174T treated): 40
SCNN1B sequencing result (methylation) at CpG site #267 (SCNN1B CpG sites; LS174T treated): 47
SCNN1B sequencing result (methylation) at CpG site #295 (SCNN1B CpG sites; LS174T treated): 7
SCNN1B sequencing result (methylation) at CpG site #179 (SCNN1B CpG sites; SW480 treated): 80
SCNN1B sequencing result (methylation) at CpG site #192 (SCNN1B CpG sites; SW480 treated): 44
SCNN1B sequencing result (methylation) at CpG site #203 (SCNN1B CpG sites; SW480 treated): 21
SCNN1B sequencing result (methylation) at CpG site #223 (SCNN1B CpG sites; SW480 treated): 89
SCNN1B sequencing result (methylation) at CpG site #228 (SCNN1B CpG sites; SW480 treated): 83
SCNN1B sequencing result (methylation) at CpG site #230 (SCNN1B CpG sites; SW480 treated): 80
SCNN1B sequencing result (methylation) at CpG site #234 (SCNN1B CpG sites; SW480 treated): 80
SCNN1B sequencing result (methylation) at CpG site #238 (SCNN1B CpG sites; SW480 treated): 87
SCNN1B sequencing result (methylation) at CpG site #245 (SCNN1B CpG sites; SW480 treated): 51
SCNN1B sequencing result (methylation) at CpG site #267 (SCNN1B CpG sites; SW480 treated): 57
SCNN1B sequencing result (methylation) at CpG site #295 (SCNN1B CpG sites; SW480 treated): 69
SCNN1B sequencing result (methylation) at CpG site #179 (SCNN1B CpG sites; SW620 treated): 59
SCNN1B sequencing result (methylation) at CpG site #192 (SCNN1B CpG sites; SW620 treated): 88
SCNN1B sequencing result (methylation) at CpG site #203 (SCNN1B CpG sites; SW620 treated): 30
SCNN1B sequencing result (methylation) at CpG site #223 (SCNN1B CpG sites; SW620 treated): 93
SCNN1B sequencing result (methylation) at CpG site #228 (SCNN1B CpG sites; SW620 treated): 95
SCNN1B sequencing result (methylation) at CpG site #230 (SCNN1B CpG sites; SW620 treated): 94
SCNN1B sequencing result (methylation) at CpG site #234 (SCNN1B CpG sites; SW620 treated): 91
SCNN1B sequencing result (methylation) at CpG site #238 (SCNN1B CpG sites; SW620 treated): 86
SCNN1B sequencing result (methylation) at CpG site #245 (SCNN1B CpG sites; SW620 treated): 26
SCNN1B sequencing result (methylation) at CpG site #267 (SCNN1B CpG sites; SW620 treated): 67
SCNN1B sequencing result (methylation) at CpG site #295 (SCNN1B CpG sites; SW620 treated): 23
